According to publication PMC9080521, “Molecular basis of rutin inhibition of protein disulfide isomerase (PDI) by combined in silico and experimental methods” (RSC Advances, 2018):

Legend:
[1] = tested on: plasma thrombin generation activity; parameters: method as in PMID 28097231; details: human, oral administration (1 gram); cited from earlier work
PDI = tested on: PDI; parameters: method as in PMID 21121641; details: read-out: inhibits PDI at; cited from earlier work
full-length human PDI = full-length human PDI (Homo sapiens, UniProt P07237); assay: Insulin reduction assay; format: biochemical; details: compound 100 μM; for turbidity (OD650), raw kinetic read at 1:40:32: 1.5 μM protein, last read (100 min), PDI alone 1.125
Sequence of full-length human PDI (P07237 18-508): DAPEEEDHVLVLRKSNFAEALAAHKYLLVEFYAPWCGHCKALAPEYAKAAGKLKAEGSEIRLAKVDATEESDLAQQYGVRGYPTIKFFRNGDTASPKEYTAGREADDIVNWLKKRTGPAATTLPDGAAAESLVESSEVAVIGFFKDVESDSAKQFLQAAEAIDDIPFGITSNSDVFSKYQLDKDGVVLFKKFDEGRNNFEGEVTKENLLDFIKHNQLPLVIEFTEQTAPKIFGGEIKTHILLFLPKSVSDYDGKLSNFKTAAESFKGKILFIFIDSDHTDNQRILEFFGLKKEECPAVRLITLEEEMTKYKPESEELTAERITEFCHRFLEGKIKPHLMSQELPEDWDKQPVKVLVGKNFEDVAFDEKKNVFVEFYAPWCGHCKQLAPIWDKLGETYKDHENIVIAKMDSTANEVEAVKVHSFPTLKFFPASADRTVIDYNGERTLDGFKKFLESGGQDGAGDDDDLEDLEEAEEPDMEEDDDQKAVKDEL
Description: (§1) The insulin reduction assay was performed to assess the enzymatic activity of PDI and its MBP-fused recombinant proteins. PDI can reduce insulin in the presence of dithiothreitol (DTT) along with increase in turbidity of the reaction mixture. We thus monitored spectrophotometrically the aggregation of reduced insulin through the increase of turbidity. The reductase activity was measured in 100 μL in presence of 600 μM insulin, 1.5 μM PDI and recombinant PDI proteins, 1 mM DTT, and with protein buffer (pH 7.4), at room temperature over 100 min by absorption at 650 nm. For inhibition assay, 100 μM of rutin, kaempferitrin, tiliroside and 2′-O-galloylhyperin or control buffer was added to the reaction system.

wt MBP-PDI-b′xa′ = target: T1, wt MBP-PDI-b′xa′ (Homo sapiens, UniProt P07237); assay: Insulin reduction assay; format: biochemical; details: compound 100 μM, 1.5 μM protein, last read (100 min); WT alone 0.829
T1 construct: MBP-PDI-b′xa′(235–479); His-tag; made in house; host or cells: E. coli BL21 (DE3)
T1 sequence (P07237 235-479): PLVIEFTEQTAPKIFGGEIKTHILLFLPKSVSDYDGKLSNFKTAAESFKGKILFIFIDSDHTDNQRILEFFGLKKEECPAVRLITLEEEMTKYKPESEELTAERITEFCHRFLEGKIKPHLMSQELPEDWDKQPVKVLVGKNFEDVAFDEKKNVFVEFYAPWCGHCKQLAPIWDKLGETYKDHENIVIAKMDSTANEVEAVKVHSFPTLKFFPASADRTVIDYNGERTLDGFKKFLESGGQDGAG
Description: as §1
We further used the insulin reduction assay to measure the reductase activities of these site-directed MBP-PDI-b′xa′ mutants. This assay has typically good reproducibility as shown by a control experiment with three repetitions (Fig. S7 ^†). We found the PDI mutants maintained reductase activities in the presence of dithiothreitol (DTT). The H354A mutation lowered the reductase activity of wt MBP-PDI-b′xa′ (Fig. 3G) while other mutants had similar reductase activities with that of wt MBP-PDI-b′xa′ (Fig. 3C, F and H–J). Addition of rutin inhibited the reductase activities of both wt MBP-PDI-b′xa′ and the mutants (Fig. 3C and F–J). […] We quantified the inhibition of rutin on these MBP-PDI-b′xa′ mutants by measuring the increase of turbidity (OD650 at 100 min) upon addition of rutin (Fig. 3K).

| Structure (SMILES) | reduction of plasma thrombin generation activity [1] | IC50 (PDI) [nM] | turbidity (OD650), raw kinetic read at 1:40:32 (full-length human PDI) | inhibitory activity on reductase activity (full-length human PDI; full-length human PDI) | turbidity (OD650), raw kinetic read at 1:40:32 (wt MBP-PDI-b′xa′) |
| --- | --- | --- | --- | --- | --- |
| O=c1c(O[C@@H]2O[C@H](CO)[C@@H](O)[C@H](O)[C@H]2O)c(-c2ccc(O)c(O)c2)oc2cc(O)cc(O)c12 [isoquercetin] | about half |  |  |  |  |
| C/C1=C/[C@H](O)C(C)(C)CCC/C(C)=C/C[C@H]1OC(=O)c1ccc(O)cc1 [juniferdin] |  | 156 |  |  |  |
| C[C@@H]1O[C@@H](Oc2cc(O)c3c(=O)c(O[C@@H]4O[C@@H](C)[C@H](O)[C@@H](O)[C@H]4O)c(-c4ccc(O)cc4)oc3c2)[C@H](O)[C@H](O)[C@H]1O [kaempferitrin] |  |  | 0.998 | smaller than that of rutin | 0.56 |
| O=C(/C=C/c1ccc(O)cc1)OC[C@H]1O[C@@H](Oc2c(-c3ccc(O)cc3)oc3cc(O)cc(O)c3c2=O)[C@H](O)[C@@H](O)[C@@H]1O [tiliroside] |  |  | 0.925 |  | 0.5 |
